{"source": "patent US12697343B2", "about": "“Intravenous istaroxime for the treatment of acute heart failure” (Seismic Pharmaceuticals Operations LLC, priority 2021, dated 2026)", "key": {"[1]": {"test_system": "patients hospitalized for acute heart failure (AHF)", "set-up": "species or system human", "conditions": "in vivo", "protocol": "The primary efficacy endpoint was the change from baseline to 24 h after the start of the infusion in the E/e ratio assessed by tissue Doppler echocardiography. Secondary endpoints included the change from baseline to 24 h of other echocardiography parameters: LVEF, left ventricular end-systolic and end-diastolic volumes, stroke volume index, E, A, E/A ratio, and S′: changes in dyspnoea by visual analogue scale (VAS) and in NT-proBNP from baseline to 24 h: proportion of patients with hospital readmissions or emergency visits for cardiovascular reasons by day 30; proportion of patients with episodes of in-hospital worsening heart failure to day 4, and length of stay. In-hospital worsening heart failure was defined by the need to increase the dose or reinitiate intravenous therapy with diuretics and/or other inotropic agents to day 4. Safety endpoints were assessed throughout the study and included: incidence of adverse events (AEs): change in vital signs and in 12-lead electrocardiographic (ECG) parameters: incidence of clinically or haemodynamically significant episodes of supraventricular or ventricular arrhythmias detected by continuous ECG monitoring: standard laboratory parameters: renal function: cardiac troponin T (cTnT): incidence of cTnT elevations, and mortality at day 30. […]"}, "[2]": {"test_system": "patients hospitalized for acute heart failure (AHF)", "experiment": "Adverse events, serious adverse events, laboratory safety and mortality to day 30", "format": "in vivo, human", "protocol": "The primary efficacy endpoint was the change from baseline to 24 h after the start of the infusion in the E/e ratio assessed by tissue Doppler echocardiography. Secondary endpoints included the change from baseline to 24 h of other echocardiography parameters: LVEF, left ventricular end-systolic and end-diastolic volumes, stroke volume index, E, A, E/A ratio, and S′: changes in dyspnoea by visual analogue scale (VAS) and in NT-proBNP from baseline to 24 h: proportion of patients with hospital readmissions or emergency visits for cardiovascular reasons by day 30; proportion of patients with episodes of in-hospital worsening heart failure to day 4, and length of stay. In-hospital worsening heart failure was defined by the need to increase the dose or reinitiate intravenous therapy with diuretics and/or other inotropic agents to day 4. Safety endpoints were assessed throughout the study and included: incidence of adverse events (AEs): change in vital signs and in 12-lead electrocardiographic (ECG) parameters: incidence of clinically or haemodynamically significant episodes of supraventricular or ventricular arrhythmias detected by continuous ECG monitoring: standard laboratory parameters: renal function: cardiac troponin T (cTnT): incidence of cTnT elevations, and mortality at day 30. Elevations in cTnT were considered significant if they were >50% or >20% from baseline values, for patients with cTnT below or above the 99% upper reference limit at baseline, respectively.\nThe study design included a 24 h screening period, a 24 h study drug infusion phase (day 1), a post-treatment phase (days 2-4), and a follow-up visit at day 30 (FIG. 5). Patients could be enrolled at any time after admission. The use of oral medications was permitted during the study with the exception of digoxin. Intravenous diuretics were permitted during the treatment period at stable doses, unless changes were required due to clinically relevant variations of the patient's condition. If treatment with an inotrope was clinically necessary during the infusion period, the investigational product was discontinued. Echocardiography was performed according to international standards at screening, baseline (just before starting study drug infusion), 6, 24 h (just before infusion end), and 48 h after infusion start. Echocardiographic measurements at baseline, 6, 24, and 48 h were evaluated in a blinded fashion by a CoreLab located at the University and Civil Hospital of Brescia, Italy. E/e′ ratio was calculated as the ratio between the peak early diastolic mitral flow velocity (E wave) and the mean of the annular lateral (e′ lateral) and septal (e′ septal) velocities, according to standard guidelines.^20 Intraobserver and interobserver variability in E/e′ measurement was tested on the 15% of the recordings and is shown in FIG. 6. Self-reported dyspnoea was assessed using a 100 mm VAS, with zero representing the worst level of dyspnoea and 10 the best breathing condition. […] Serial measurements of NT-proBNP throughout the study were analyzed by a central laboratory (Elecsys® proBNP II, Roche®, Basel, Switzerland). Samples for cTnT were taken at baseline, 3, 6, 12, 24, 48, and 72 h and on day 30, and were analyzed by a core laboratory (Elecsys® high-sensitivity assay, Roche®, Basel, Switzerland). AEs were monitored throughout the duration of the study. […]"}, "[3]": {"conditions": "istaroxime 1.0 μg/Kg/min (n = 40), 30-day follow-up period"}}, "note": "Where a name gives a salt, the structure may show the parent alone."}
{"smiles": "C[C@]12CCC(=NOCCN)C[C@@H]1C(=O)C[C@@H]1[C@@H]2CC[C@]2(C)C(=O)CC[C@@H]12", "note": "[Istaroxime, (E,Z)-3-((2-aminoethoxy)imino)androstane-6,17-dione hydrochloride]", "values": [{"measurement": "Renal function measured by eGFR", "setting": "[1]", "result": "generally increased"}, {"measurement": "Mortality within the 30-day study period", "setting": "[2]; 1.0 μg/kg/min group, cardiogenic shock", "result": "One patient died"}, {"measurement": "rate of SAEs", "setting": "[2]; in vivo", "result": "did not show meaningful differences"}, {"measurement": "rate of injection site reactions", "setting": "[2]; in vivo, iv", "result": "high"}, {"measurement": "Serious adverse events: Cardiac death", "setting": "[2]; [3]", "result": "1 number of patients"}, {"measurement": "Serious adverse events: Cardiac death, percent of patients", "setting": "[2]; [3]", "result": "(2.5) %"}]}
